In brackets after ≈: the same amount, converted by molar mass.
Tests used:
[1] = test system: ANKA strain of P. berghei; assay: single dose STI in vivo screen in infected mice; design: species or system Plasmodium berghei; conditions: for Activity (%) po / Activity (%) sc / Activity (%) SSVpo / Activity (%) 3 mg/kg SSV po / Activity (%) 10 mg/kg SSV po: percent reduction in parasitemia day 3 post-infection; for Activity (%) po / Survival (days) po: single 10 mg/kg po in 3% ethanol and 7% Tween 80; for Activity (%) po / Activity (%) sc / Activity (%) SSVpo: mice; for Activity (%) sc / Survival (days) sc: single 10 mg/kg sc in 3% ethanol and 7% Tween 80; for Activity (%) SSVpo: single po dose in standard suspending vehicle (SSV); for Survival (days) po / Survival (days) sc / Survival (days) SSVpo: untreated control 5.6 ± 0.3; for Survival (days) SSVpo: single po dose in SSV; for Activity (%) 10 mg/kg SSV po / Survival (days) 10 mg/kg SSV po: single 10 mg/kg po in SSV
In short: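 Groups of 3-5 Moro SPF or NMRI mice infected with the ANKA strain of P. berghei received a single dose of trioxolane on day one post-infection. The compound was given in 3% ethanol and 7% Tween 80 or in SSV (0.5% w/v CMC, 0.5% v/v benzyl alcohol, 0.4% v/v Tween 80, 0.9% w/v sodium chloride in water). Antimalarial activity was scored as percent reduction in parasitemia on day three and as survival time versus untreated controls. Survival to day 30 counted as cure.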

[2] = test system: P. falciparum K1 strain (Thailand resistant to chloroquine); assay: semiautomated microdilution assay, [3H]-hypoxanthine incorporation, K1 strain; format: cell-based, Plasmodium falciparum; conditions: for IC50 (ng/ml) K1: K1 strain, 72 h incubation
Protocol: (§1) Various OZ compounds were tested by the semiautomated microdilution assay against intraerythrocytic forms of Plasmodium falciparum derived from asynchronous stock cultures.
(§2) Fifty percent inhibitory concentration (IC50) were estimated by Logit regression analysis.

[3] = test system: P. falciparum NF54 strain (sensitive to standard antimalarials); assay: semiautomated microdilution assay, [3H]-hypoxanthine incorporation, NF54 strain; format: cell-based, Plasmodium falciparum; conditions: for IC50 (ng/ml) NF54: NF54 strain, 72 h incubation
Protocol: as §1, §2

Row | Structure (SMILES) | Activity (%) po [1] [%] | Activity (%) sc [1] [%] | Activity (%) SSVpo [1] [%] | Survival (days) po [1] [days] | Survival (days) sc [1] [days] | Survival (days) SSVpo [1] [days] | IC50 (ng/ml) K1 [2] | IC50 (ng/ml) NF54 [3] | Activity (%) 3 mg/kg SSV po ([1]; single 3 mg/kg po in SSV) [%] | Activity (%) 10 mg/kg SSV po [1] [%] | Survival (days) 10 mg/kg SSV po [1] [days] | Survival (days) 3 mg/kg SSV po ([1]; single 3 mg/kg po in SSV) [days] | IC50 ([2]; Plasmodium falciparum, K1, 72 h, read-out: IC50 (ng/ml) K1) [ng/mL] | IC50 ([3]; Plasmodium falciparum, NF54, 72 h, read-out: IC50 (ng/ml) NF54) [ng/mL]
1 | O=C(NO)[C@H]1CC[C@]2(CC1)OOC1(O2)C2CC3CC(C2)CC1C3 (stereo partly drawn) [OZ116] | 97 | 96 | 96 | 7.7 | 8.0 | 8.3 | 4.2 ng/mL (≈ 13 nM) | 3.3 ng/mL (≈ 10.2 nM) | – | – | – | – | – | –
2 | O=C(C[C@H]1CC[C@]2(CC1)OO[C@]1(O2)C2CC3CC(C2)CC1C3)NCCN1CCOCC1 [OZ313] | – | – | – | – | – | – | 0.55 ng/mL (≈ 1.27 nM) | 0.76 ng/mL (≈ 1.75 nM) | 58 | 98.9 | – | – | – | –
3 | O=C(C[C@H]1CC[C@]2(CC1)OO[C@]1(O2)C2CC3CC(C2)CC1C3)N1CCC(O)CC1 [OZ297] | – | – | – | – | – | – | 0.49 ng/mL (≈ 1.21 nM) | 0.76 ng/mL (≈ 1.87 nM) | 83 | – | 9.8 | – | – | –
4 | BrC[C@H]1CC[C@]2(CC1)OOC1(O2)C2CC3CC(C2)CC1C3 (stereo partly drawn) [OZ123] | 99.66 | 99.96 | 94 | 8.0 | 16 | 7.0 | 1.6 ng/mL (≈ 4.48 nM) | 1.9 ng/mL (≈ 5.32 nM) | – | – | – | – | – | –
5 | C1C2CC3CC1CC(C2)[C@]31OO[C@@]2(CC[C@H](Cc3nnn[nH]3)CC2)O1 [OZ363] | – | – | – | – | – | – | 46 ng/mL (≈ 133 nM) | 55 ng/mL (≈ 159 nM) | 10 | 40 | 6.8 | 6.0 | – | –
6 | COCC(=O)N[C@H]1CC[C@]2(CC1)OOC1(O2)C2CC3CC(C2)CC1C3 (stereo partly drawn) [OZ186] | 87 | 67 | 96 | 8.0 | 8.0 | 9.0 | >10/>10 ng/ml | >10/>10 ng/ml | – | – | – | – | – | –
7 | C1C2CC3CC1CC(C2)C31OO[C@]2(CC[C@@H](CNC3CC3)CC2)O1 (stereo partly drawn) [OZ253] | 75 | 99.82 | 59 | 7.0 | 9.3 | 6.7 | 0.56 ng/mL (≈ 1.68 nM) | 0.45 ng/mL (≈ 1.35 nM) | – | – | – | – | – | –
8 | CCCCCCCCS(=O)(=O)N1CCC2(CC1)OOC1(O2)C2CC3CC(C2)CC1C3 (stereo not drawn) [OZ115] | 33 | 97 | 0 | 6.3 | 7.3 | 5.7 | 11 ng/mL (≈ 24.9 nM) | 6.9 ng/mL (≈ 15.6 nM) | – | – | – | – | – | –
9 | c1ccc2c(c1)CCC1(C2)OOC2(O1)C1CC3CC(C1)CC2C3 (stereo not drawn) [OZ85] | 34 | 99.7 | – | 6.0 | 8.3 | – | 0.86 ng/mL (≈ 2.75 nM) | 1.8 ng/mL (≈ 5.76 nM) | – | – | – | – | – | –
10 | O=C(N1CCCC1)N1CCC2(CC1)OOC1(O2)C2CC3CC(C2)CC1C3 (stereo not drawn) [OZ203] | 87 | 99.72 | 99.42 | 7.3 | 9.7 | 8.7 | 3.9 ng/mL (≈ 10.8 nM) | 6.7 ng/mL (≈ 18.5 nM) | – | – | – | – | – | –
11 | O=C(NC[C@H]1CC[C@]2(CC1)OOC1(O2)C2CC3CC(C2)CC1C3)c1cccc[n+]1[O-] (stereo partly drawn) [OZ270] | 99.17 | 99.81 | 99.47 | 13.7 | 11.3 | 12.3 | 0.85 ng/mL (≈ 2.05 nM) | 1.3 ng/mL (≈ 3.14 nM) | – | – | – | – | – | –
12 | CS(=O)(=O)NC[C@H]1CC[C@]2(CC1)OOC1(O2)C2CC3CC(C2)CC1C3 (stereo partly drawn) [OZ257] | 99.00 | 99.84 | 99.49 | 8.3 | 9.7 | 7.7 | 42 ng/mL (≈ 113 nM) | 21 ng/mL (≈ 56.5 nM) | – | – | – | – | – | –
13 | CC(=O)NC[C@H]1CC[C@]2(CC1)OOC1(O2)C2CC3CC(C2)CC1C3 (stereo partly drawn) [OZ262] | 96 | 99.39 | 98 | 11.7 | 10.0 | 12.3 | 0.63 ng/mL (≈ 1.88 nM) | 0.84 ng/mL (≈ 2.5 nM) | – | – | – | – | – | –
14 | CN1CCN(C(=O)NC[C@H]2CC[C@]3(CC2)OOC2(O3)C3CC4CC(C3)CC2C4)CC1 (stereo partly drawn) [OZ267] | 99.92 | 99.97 | 99.89 | 8.3 | 9.3 | 8.7 | 0.20 ng/mL (≈ 0.477 nM) | 0.34 ng/mL (≈ 0.81 nM) | – | – | – | – | – | –
15 | CC1(O)CCC2(CC1)OOC1(O2)C2CC3CC(C2)CC1C3 (stereo not drawn) [OZ90] | 89 | 99 | 95 | 7.0 | 8.0 | 7.0 | – | – | – | – | – | – | 0.44 (≈ 1.49 nM) | 0.84 (≈ 2.85 nM)
16 | c1ccc2c(c1)CCCC21OOC2(O1)C1CC3CC(C1)CC2C3 (stereo not drawn) [OZ84] | 92 | 99.99 | – | 7.7 | 14.7 | – | 1.4 ng/mL (≈ 4.48 nM) | 2.1 ng/mL (≈ 6.72 nM) | – | – | – | – | – | –

— patent publication US6906205B2, “Spiro and dispiro 1,2,4-trioxolane antimalarials” (Medicines for Malaria Venture MMV, priority 2002, dated 2005)
